Reference: patent USRE38117E1, “Trioxane dimer compound having antiproliferative and antitumor activities” (Hauser, Inc., priority 1995, dated 2003)

Tests used:
Format in all cases: cell-based
[1] = system: K-562; assay: NCI 60 cell line screen (SRB), Leukemia; conditions: K-562 (Leukemia)
[2] = system: MOLT-4; assay: NCI 60 cell line screen (SRB), Leukemia; conditions: MOLT-4 (Leukemia)
[3] = system: SR; assay: NCI 60 cell line screen (SRB), Leukemia
[4] = system: EKVX; assay: NCI 60 cell line screen (SRB), Non-Small Cell Lung Cancer
[5] = system: NCI-H322M; assay: as above
[6] = system: NCI-H460; assay: as above
[7] = system: NCI-H522; assay: as above
[8] = system: COLO 205; assay: NCI 60 cell line screen (SRB), Colon Cancer; conditions: COLO 205 (Colon Cancer)
[9] = system: HCC-2998; assay: NCI 60 cell line screen (SRB), Colon Cancer; conditions: HCC-2998 (Colon Cancer)
[10] = system: HCT-116; assay: NCI 60 cell line screen (SRB), Colon Cancer; conditions: HCT-116 (Colon Cancer)
[11] = system: HT29; assay: NCI 60 cell line screen (SRB), Colon Cancer
[12] = system: KM12; assay: NCI 60 cell line screen (SRB), Colon Cancer
[13] = system: SW-620; assay: NCI 60 cell line screen (SRB), Colon Cancer; conditions: SW-620 (Colon Cancer)
[14] = system: SF-268; assay: NCI 60 cell line screen (SRB), CNS Cancer; conditions: SF-268 (CNS Cancer)
[15] = system: SF-295; assay: NCI 60 cell line screen (SRB), CNS Cancer; conditions: SF-295 (CNS Cancer)
[16] = system: SNB-19; assay: NCI 60 cell line screen (SRB), CNS Cancer; conditions: SNB-19 (CNS Cancer)
[17] = system: SK-MEL-2; assay: NCI 60 cell line screen (SRB), Melanoma; conditions: SK-MEL-2 (Melanoma)
[18] = system: SK-MEL-5; assay: NCI 60 cell line screen (SRB), Melanoma; conditions: SK-MEL-5 (Melanoma)
[19] = system: OVCAR-4; assay: NCI 60 cell line screen (SRB), Ovarian Cancer; conditions: OVCAR-4 (Ovarian Cancer)
[20] = system: 786-0; assay: NCI 60 cell line screen (SRB), Renal Cancer; conditions: 786-0 (Renal Cancer)
[21] = system: SN12C; assay: NCI 60 cell line screen (SRB), Renal Cancer
[22] = system: PC-3; assay: NCI 60 cell line screen (SRB), Prostate Cancer; conditions: PC-3 (Prostate Cancer)
[23] = system: MCF7; assay: NCI 60 cell line screen (SRB), Breast Cancer
[24] = system: HS 578T; assay: NCI 60 cell line screen (SRB), Breast Cancer; conditions: HS 578T (Breast Cancer)
[25] = system: MDA-MB-435; assay: NCI 60 cell line screen (SRB), Breast Cancer; conditions: MDA-MB-435 (Breast Cancer)
[26] = system: BT-549; assay: NCI 60 cell line screen (SRB), Breast Cancer; conditions: BT-549 (Breast Cancer)
[27] = system: murine keratinocyte cell line PE; assay: Growth inhibition of PE cells (MTT assay); conditions: murine keratinocytes, FIGS. 1-9
Method: To determine the inhibitory effect of the trioxane dimers of the present invention on cell proliferation, screening assays were performed on a murine keratinocyte cell line PE. […] PE cell culture medium consisted of Eagle's minimal essential medium without calcium chloride (Whittaker Bioproducts, Walkersville, Ma.) supplemented with 8% chelexed fetal calf serum and 1% antibiotic-antimycotic (Gibco BRL) and the addition of CaCl2 to 0.05 mM Ca^++. […] (St. Louis, Mo.), and TPA was supplied by L. C. Services (Woburn, Ma.). L-[^14C]ornithine ([…]) was from Amersham/Searle Corp. (Arlington Heights, Ill.). Chemical solvents used in all assays of biological activity were of the highest grade commercially available. Growth Inhibition. […] A mitochondrial dehydrogenase reduces MTT to a blue formazan product with an absorbance maximum of 505 nm in DMSO; the number of viable cells can thus be determined spectrophotometrically. PE cells were seeded at a density of 5,000 cells/well in 50 μL of medium into 96-well microtiter plates. […] The plates were fed once at 48 h, with the readdition of the vitamin D3 analogs at this time. […] After 4 h, the MTT was removed and DMSO added to dissolve the blue formazan dye. Using a microtiter plate reader, the […] was then determined and cell number calculated from blank-subtracted absorbance values.

COC1OC2(C)CCC3CCCC(CCOC(=O)c4ccc(C(=O)OCCC5CCCC6CCC7(C)OOC56C(OC)O7)cc4)C31OO2 (stereo not shown) [Compound 11, Bis-ester Dimer]
Log10GI50 [1]: −6.57 M
Log10LC50 [1]: >−4.00 M
Log10TGI [1]: >−4.00 M
Log10GI50 [2]: −6.67 M
Log10LC50 [2]: >−4.00 M
Log10TGI ([2]; listed as Terephtalate Dimer): −4.70 M
Log10TGI ([2]; listed as terephthalate dimer): 6.20 M
Log10GI50 [3]: −6.38 M
Log10LC50 [3]: >−4.00 M
Log10TGI [3]: −5.17 M
Log10GI50 [4]: −5.20 M
Log10LC50 [4]: >−4.00 M
Log10TGI [4]: >−4.00 M
Log10GI50 [5]: −4.69 M
Log10LC50 [5]: >−4.00 M
Log10TGI [5]: >−4.00 M
Log10GI50 [6]: −6.02 M
Log10LC50 [6]: >−4.00 M
Log10TGI [6]: >−4.00 M
Log10GI50 [7]: −5.66 M
Log10LC50 [7]: >−4.00 M
Log10TGI [7]: −4.45 M
Log10GI50 [8]: −6.31 M
Log10LC50 [8]: −5.17 M
Log10TGI [8]: −5.71 M
Log10GI50 [9]: −4.56 M
Log10LC50 [9]: >−4.00 M
Log10TGI [9]: >−4.00 M
Log10GI50 [10]: −6.30 M
Log10LC50 [10]: >−4.00 M
Log10TGI [10]: >−4.00 M
Log10GI50 [11]: −5.90 M
Log10LC50 [11]: >−4.00 M
Log10TGI [11]: >−4.00 M
Log10GI50 [12]: −6.24 M
Log10LC50 [12]: >−4.00 M
Log10TGI [12]: >−4.00 M
Log10GI50 [13]: −6.12 M
Log10LC50 [13]: >−4.00 M
Log10TGI [13]: >−4.00 M
Log10GI50 [14]: −5.14 M
Log10LC50 [14]: >−4.00 M
Log10TGI [14]: >−4.00 M
Log10GI50 [15]: −5.49 M
Log10LC50 [15]: >−4.00 M
Log10TGI [15]: >−4.00 M
Log10GI50 [16]: −5.31 M
Log10LC50 [16]: >−4.00 M
Log10TGI [16]: >−4.00 M
Log10GI50 [17]: −5.47 M
Log10LC50 [17]: >−4.00 M
Log10TGI [17]: −5.04 M
Log10GI50 [18]: −6.00 M
Log10LC50 [18]: >−4.00 M
Log10TGI [18]: >−4.00 M
Log10GI50 [19]: −5.26 M
Log10LC50 [19]: >−4.00 M
Log10TGI [19]: >−4.00 M
Log10GI50 [20]: −5.41 M
Log10LC50 [20]: >−4.00 M
Log10TGI [20]: >−4.00 M
Log10GI50 [21]: −5.46 M
Log10LC50 [21]: >−4.00 M
Log10TGI [21]: >−4.00 M
Log10GI50 [22]: −6.51 M
Log10LC50 [22]: >−4.00 M
Log10TGI [22]: >−4.00 M
Log10GI50 [23]: −5.86 M
Log10LC50 [23]: >−4.00 M
Log10TGI [23]: >−4.00 M
Log10GI50 [24]: −4.55 M
Log10LC50 [24]: >−4.00 M
Log10TGI [24]: >−4.00 M
Log10GI50 [25]: −5.69 M
Log10LC50 [25]: >−4.00 M
Log10TGI [25]: −4.63 M
Log10GI50 [26]: −5.44 M
Log10LC50 [26]: >−4.00 M
Log10TGI [26]: >−4.00 M
antiproliferative activity [27]: high antiproliferative activity

COC1OC2(C)CCC3CCCC(CCOCCC4CCCC5CCC6(C)OOC45C(OC)O6)C31OO2 (stereo not shown) [Compound 6, Trioxane Ether Dimer]
Log10GI50 [1]: −6.75 M
Log10LC50 [1]: >−4.00 M
Log10TGI [1]: >−4.00 M
Log10GI50 [2]: −6.27 M
Log10LC50 ([2]; listed as Ether Dimer): >−4.00 M
Log10TGI ([2]; listed as Ether Dimer): >−4.00 M
Log10LC50 ([2]; listed as either dimer): greater than −400. M
Log10TGI ([2]; listed as ether dimer): 4.50 M
Log10GI50 [3]: −7.19 M
Log10LC50 [3]: >−4.00 M
Log10TGI [3]: −5.93 M
Log10GI50 [4]: −5.56 M
Log10LC50 [4]: >−4.00 M
Log10TGI [4]: >−4.00 M
Log10GI50 [5]: >−4.00 M
Log10LC50 [5]: >−4.00 M
Log10TGI [5]: >−4.00 M
Log10GI50 [6]: −6.23 M
Log10LC50 [6]: >−4.00 M
Log10TGI [6]: >−4.00 M
Log10GI50 [7]: −6.13 M
Log10LC50 [7]: >−4.00 M
Log10TGI [7]: −4.76 M
Log10GI50 [8]: −6.85 M
Log10LC50 [8]: −5.77 M
Log10TGI [8]: −6.36 M
Log10GI50 [9]: −5.94 M
Log10LC50 [9]: −4.04 M
Log10TGI [9]: −4.90 M
Log10GI50 [10]: −6.98 M
Log10LC50 [10]: >−4.00 M
Log10TGI [10]: >−4.00 M
Log10GI50 [11]: −6.24 M
Log10LC50 [11]: >−4.00 M
Log10TGI [11]: >−4.00 M
Log10GI50 [12]: −6.85 M
Log10LC50 [12]: >−4.00 M
Log10TGI [12]: −4.28 M
Log10GI50 [13]: −6.66 M
Log10LC50 [13]: >−4.00 M
Log10TGI [13]: >−4.00 M
Log10GI50 [14]: −5.07 M
Log10LC50 [14]: >−4.00 M
Log10TGI [14]: >−4.00 M
Log10GI50 [15]: −5.61 M
Log10LC50 [15]: >−4.00 M
Log10TGI [15]: >−4.00 M
Log10GI50 [16]: −5.01 M
Log10LC50 [16]: >−4.00 M
Log10TGI [16]: >−4.00 M
Log10GI50 [17]: −5.86 M
Log10LC50 [17]: >−4.00 M
Log10TGI [17]: −4.13 M
Log10GI50 [18]: −7.39 M
Log10LC50 [18]: −4.15 M
Log10TGI [18]: −4.90 M
Log10GI50 [19]: −5.11 M
Log10LC50 [19]: >−4.00 M
Log10TGI [19]: >−4.00 M
Log10GI50 [20]: −5.65 M
Log10LC50 [20]: >−4.00 M
Log10TGI [20]: −4.53 M
Log10GI50 [21]: −5.46 M
Log10LC50 [21]: >−4.00 M
Log10TGI [21]: >−4.00 M
Log10GI50 [22]: −7.85 M
Log10LC50 [22]: −4.00 M
Log10TGI [22]: −4.75 M
Log10GI50 [23]: −6.37 M
Log10LC50 [23]: >−4.00 M
Log10TGI [23]: >−4.00 M
Log10LC50 [24]: >−4.00 M
Log10TGI [24]: >−4.00 M
Log10GI50 [25]: −6.38 M
Log10LC50 [25]: >−4.00 M
Log10TGI [25]: >−4.00 M
Log10GI50 [26]: −5.89 M
Log10LC50 [26]: >−4.00 M
Log10TGI [26]: >−4.00 M
antiproliferative activity [27]: the most antiproliferative
